Measurements reported in ChEMBL document CHEMBL3603790, “2- and 3-Fluoro-3-deazaneplanocins, 2-fluoro-3-deazaaristeromycins, and 3-methyl-3-deazaneplanocin: Synthesis and antiviral properties” (Bioorg Med Chem, 2015).
pIC50: −log10 of the molar value. The source made the active and inactive calls. No cut-off for these calls is given here.

Experiments:
[1] = Cytotoxicity against African green monkey Vero E6 cells; type: cell-based; details: chlorocebus sabaeus
[2] = test system: Hepatitis C virus; experiment: Antiviral activity against Hepatitis C virus infected in human Ava5 cells after 3 days by neutral red dye-based plaque reduction assay; type: functional, organism-based; details: Hepacivirus hominis
[3] = Cytotoxicity against monkey MA104 cells; type: cell-based, Macaca mulatta; details: rhesus monkey
[4] = (§1) Cytotoxicity against African green monkey Vero cells; type: cell-based; details: chlorocebus sabaeus, Vero cells
[5] = Cytotoxicity against human Ava5 cells; type: cell-based
[6] = test system: Rift Valley fever virus; experiment: Antiviral activity against Rift Valley fever virus infected in African green monkey Vero 76 cells after 3 days by neutral red dye-based plaque reduction assay; type: functional, organism-based
[7] = Cytotoxicity against African green monkey CV1 cells; type: cell-based, CV-1; details: chlorocebus aethiops
[8] = Selectivity index, ratio of CC50 for African green monkey Vero cells to IC50 for Yellow fever virus; type: functional
[9] = test system: Vaccinia virus; experiment: Antiviral activity against Vaccinia virus infected in HEL cells after 3 days by neutral red dye-based plaque reduction assay; type: functional, organism-based; details: Orthopoxvirus vaccinia
[10] = test system: Venezuelan equine encephalitis virus; experiment: Antiviral activity against Venezuelan equine encephalitis virus infected in African green monkey Vero cells after 3 days by neutral red dye-based plaque reduction assay; type: functional, organism-based
[11] = test system: Chikungunya virus; experiment: Antiviral activity against Chikungunya virus infected in African green monkey Vero 76 cells after 3 days by neutral red dye-based plaque reduction assay; type: functional, cell-based
[12] = test system: Cowpox virus; experiment: Antiviral activity against Cowpox virus infected in HFF after 3 days by neutral red dye-based plaque reduction assay; type: functional, organism-based
[13] = test system: Human papillomavirus; experiment: Antiviral activity against Human papillomavirus infected in HEK293 cells after 3 days by neutral red dye-based plaque reduction assay; type: functional, organism-based
[14] = test system: Measles morbillivirus; experiment: Antiviral activity against Measles virus infected in African green monkey CV1 cells after 3 days by neutral red dye-based plaque reduction assay; type: functional, organism-based; details: CV-1, 72 h
[15] = test system: MDCK; experiment: Cytotoxicity against MDCK cells; type: cell-based, Canis lupus familiaris; details: dog, mdck
[16] = test system: Tacaribe virus; experiment: Antiviral activity against Tacaribe virus infected in African green monkey Vero 76 cells after 3 days by neutral red dye-based plaque reduction assay; type: functional, organism-based; details: Mammarenavirus tacaribeense
[17] = test system: Respiratory syncytial virus; experiment: Antiviral activity against Respiratory syncytial virus infected in monkey MA104 cells after 3 days by neutral red dye-based plaque reduction assay; type: functional, organism-based
[18] = test system: Cytomegalovirus; experiment: Antiviral activity against Cytomegalovirus infected in HEL cells after 3 days by neutral red dye-based plaque reduction assay; type: functional, organism-based
[19] = test system: Pichinde virus; experiment: Antiviral activity against Pichinde virus infected in African green monkey Vero cells after 3 days by neutral red dye-based plaque reduction assay; type: functional, organism-based
[20] = test system: Enterovirus C; experiment: Antiviral activity against Poliovirus infected in monkey LLC-MK2 cells after 3 days by neutral red dye-based plaque reduction assay; type: functional, organism-based
[21] = test system: Dengue virus; experiment: Antiviral activity against Dengue virus infected in African green monkey Vero cells after 3 days by neutral red dye-based plaque reduction assay; type: functional, organism-based
[22] = test system: SARS-CoV; experiment: Antiviral activity against SARS coronavirus infected in African green monkey Vero E6 cells after 3 days by neutral red dye-based plaque reduction assay; type: functional, organism-based; details: Severe acute respiratory syndrome-related coronavirus
[23] = Cytotoxicity against African green monkey Vero 76 cells; type: cell-based; details: chlorocebus sabaeus, vero 76
[24] = test system: HEL; experiment: Cytotoxicity against HEL cells; type: cell-based; details: human
[25] = test system: Human alphaherpesvirus 1; experiment: Antiviral activity against Human herpesvirus 1 infected in HEL cells after 3 days by neutral red dye-based plaque reduction assay; type: functional, organism-based
[26] = test system: Influenza A virus; experiment: Antiviral activity against Influenza A virus H1N1 infected in MDCK cells after 3 days by neutral red dye-based plaque reduction assay; type: functional, organism-based
[27] = Selectivity index, ratio of CC50 for African green monkey CV1 cells to IC50 for Measles virus; type: functional, CV-1
[28] = test system: Enterovirus A71; experiment: Antiviral activity against Enterovirus 71 infected in monkey LLC-MK2 cells after 3 days by neutral red dye-based plaque reduction assay; type: functional, organism-based
[29] = test system: West Nile virus; experiment: Antiviral activity against WNV infected in African green monkey Vero 76 cells after 3 days by neutral red dye-based plaque reduction assay; type: functional, organism-based
[30] = test system: Respiratory syncytial virus; experiment: Antiviral activity against Respiratory syncytial virus infected in human HeLa cells after 3 days by neutral red dye-based plaque reduction assay; type: functional, organism-based
[31] = test system: Human alphaherpesvirus 2; experiment: Antiviral activity against Human herpesvirus 2 infected in HEL cells after 3 days by neutral red dye-based plaque reduction assay; type: functional, organism-based
[32] = Inhibition of rabbit erythrocytic AdoHcy hydrolase using AdoHcy as substrate assessed as formation of L-homocysteine preincubated for 5 mins followed by substrate addition measured after 1 hr by thiol quantitation reagent-based assay; parameters: species or system Oryctolagus cuniculus
[33] = test system: HEK293; experiment: Cytotoxicity against HEK293 cells; type: cell-based; details: human
[34] = test system: HeLa; experiment: Cytotoxicity against human HeLa cells; type: cell-based
[35] = test system: LLC-MK2; experiment: Cytotoxicity against monkey LLC-MK2 cells; type: cell-based, Macaca mulatta; details: rhesus monkey
[36] = test system: Yellow fever virus; experiment: Antiviral activity against Yellow fever virus infected in African green monkey Vero cells after 3 days by neutral red dye-based plaque reduction assay; type: functional, organism-based; details: 72 h
[37] = test system: Vero; experiment: as §1; type: cell-based; details: chlorocebus sabaeus, vero

Row | Structure (SMILES) | Activity [2] | Activity [3] | Activity [5] | Activity [6] | CC50 [7] [µM] | Activity [9] | Activity [10] | pIC50 [14] | Activity [16] | Activity [17] | Activity [21] | Activity [23] | Activity [24] | Ratio CC50/IC50 [27] | Activity [29] | Activity [30] | pIC50 [32] | Activity [34] | further results
1 | Nc1nc(F)cc2c1ncn2[C@@H]1C[C@H](O)[C@@H](O)[C@H]1O | inactive | Non-toxic | Non-toxic | inactive | > 100 | inactive | inactive | 4.52 | inactive | inactive | inactive | Non-toxic | Non-toxic | >3 | inactive | inactive | 6.00 | Non-toxic | Activity [1]: Non-toxic; CC50 [4]: > 100 µM; Ratio CC50/IC50 [8]: >6.7; Activity [11]: inactive; Activity [12]: inactive; Activity [13]: inactive; Activity [15]: Non-toxic; Activity [18]: inactive; Activity [19]: inactive; Activity [20]: inactive; Activity [22]: inactive; Activity [25]: inactive; Activity [26]: inactive; Activity [28]: inactive; Activity [31]: inactive; Activity [33]: Non-toxic; Activity [35]: Non-toxic; pIC50 [36]: 4.82
2 | Nc1nc(F)cc2c1ncn2[C@@H]1C[C@H](CCO)[C@@H](O)[C@H]1O | inactive | Non-toxic | Non-toxic | inactive | > 338 | inactive | inactive | 3.79 | inactive | inactive | inactive | Non-toxic | Non-toxic | >2.1 | inactive | inactive | 5.43 | Non-toxic | Activity [37]: Non-toxic
